For 25 compounds, Ki results are on record in ChEMBL document CHEMBL5442175, “EUbOPEN Chemogenomics Library - PDSP Secondary Binding” (2024).

Structures are written as SMILES. Counter-ions that a name gives are not always drawn.

One assay addresses D(1B) dopamine receptor (Homo sapiens, UniProt P21918). Briefly: PDSP Secondary Binding target: DRD5 - Compounds are tested at 10 uM concentration, plate are incubated at room temperature in the dark for 90 minutes. Reaction are stopped by vacuum filtration onto 0.3% polyethyleneimine soaked filter mats using Filtermate harvester. Scintillation cocktail is then melted onto microwave-dried filters on a hot plate and the radio activity is counted in Microbia counter.

For assay [1], the target named is Sodium-dependent dopamine transporter (Homo sapiens, UniProt Q01959). As to the kind of experiment: PDSP Secondary Binding target: SLC6A3 - Compounds are tested at 10 uM concentration, plate are incubated at room temperature in the dark for 90 minutes. Reaction are stopped by vacuum filtration onto 0.3% polyethyleneimine soaked filter mats using Filtermate harvester. Scintillation cocktail is then melted onto microwave-dried filters on a hot plate and the radio activity is counted in Microbia counter.

Another assay addresses D(1A) dopamine receptor (Homo sapiens, UniProt P21728). As to the kind of experiment: PDSP Secondary Binding target: DRD1 - Compounds are tested at 10 uM concentration, plate are incubated at room temperature in the dark for 90 minutes. Reaction are stopped by vacuum filtration onto 0.3% polyethyleneimine soaked filter mats using Filtermate harvester. Scintillation cocktail is then melted onto microwave-dried filters on a hot plate and the radio activity is counted in Microbia counter.

The target in the next assay is Histamine H3 receptor (Homo sapiens, UniProt Q9Y5N1). As to the kind of experiment: PDSP Secondary Binding target: HRH3 - Compounds are tested at 10 uM concentration, plate are incubated at room temperature in the dark for 90 minutes. Reaction are stopped by vacuum filtration onto 0.3% polyethyleneimine soaked filter mats using Filtermate harvester. Scintillation cocktail is then melted onto microwave-dried filters on a hot plate and the radio activity is counted in Microbia counter.

The next assay deals with T1, D(4) dopamine receptor (Homo sapiens, UniProt P21917).
T1 sequence (P21917 whole entry): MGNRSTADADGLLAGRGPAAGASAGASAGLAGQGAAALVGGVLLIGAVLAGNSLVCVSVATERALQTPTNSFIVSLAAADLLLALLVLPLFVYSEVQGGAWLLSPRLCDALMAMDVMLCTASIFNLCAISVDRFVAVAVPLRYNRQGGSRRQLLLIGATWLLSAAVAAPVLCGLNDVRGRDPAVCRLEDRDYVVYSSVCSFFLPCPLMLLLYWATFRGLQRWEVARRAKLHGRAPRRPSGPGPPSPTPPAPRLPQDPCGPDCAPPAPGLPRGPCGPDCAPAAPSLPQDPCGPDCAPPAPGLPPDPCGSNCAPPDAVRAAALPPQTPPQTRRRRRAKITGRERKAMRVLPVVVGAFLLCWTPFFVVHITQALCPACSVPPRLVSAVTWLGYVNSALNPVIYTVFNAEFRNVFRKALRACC
As to the kind of experiment: PDSP Secondary Binding target: DRD4 - Compounds are tested at 10 uM concentration, plate are incubated at room temperature in the dark for 90 minutes. Reaction are stopped by vacuum filtration onto 0.3% polyethyleneimine soaked filter mats using Filtermate harvester. Scintillation cocktail is then melted onto microwave-dried filters on a hot plate and the radio activity is counted in Microbia counter.

The target in assay [2] is T2, Alpha-1B adrenergic receptor (Homo sapiens, UniProt P35368).
T2 sequence (P35368 whole entry): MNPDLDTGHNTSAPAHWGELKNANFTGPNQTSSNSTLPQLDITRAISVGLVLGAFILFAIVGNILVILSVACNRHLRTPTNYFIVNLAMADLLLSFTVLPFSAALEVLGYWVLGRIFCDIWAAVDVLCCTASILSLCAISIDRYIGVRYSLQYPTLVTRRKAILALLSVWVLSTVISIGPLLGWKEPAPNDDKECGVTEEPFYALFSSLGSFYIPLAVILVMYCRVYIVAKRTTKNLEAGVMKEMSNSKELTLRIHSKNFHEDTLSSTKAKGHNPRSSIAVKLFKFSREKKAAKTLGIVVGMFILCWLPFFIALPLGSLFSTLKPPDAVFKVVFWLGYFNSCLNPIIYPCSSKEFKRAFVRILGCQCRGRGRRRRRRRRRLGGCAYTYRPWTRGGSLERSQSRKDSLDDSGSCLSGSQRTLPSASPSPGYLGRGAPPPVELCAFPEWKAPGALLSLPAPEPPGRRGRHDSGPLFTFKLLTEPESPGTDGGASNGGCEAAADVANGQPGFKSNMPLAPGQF
As to the kind of experiment: PDSP Secondary Binding target: ADRA1B - Compounds are tested at 10 uM concentration, plate are incubated at room temperature in the dark for 90 minutes. Reaction are stopped by vacuum filtration onto 0.3% polyethyleneimine soaked filter mats using Filtermate harvester. Scintillation cocktail is then melted onto microwave-dried filters on a hot plate and the radio activity is counted in Microbia counter.

For assay [3], the target named is T3, Alpha-1A adrenergic receptor (Homo sapiens, UniProt P35348).
T3 sequence (P35348 whole entry): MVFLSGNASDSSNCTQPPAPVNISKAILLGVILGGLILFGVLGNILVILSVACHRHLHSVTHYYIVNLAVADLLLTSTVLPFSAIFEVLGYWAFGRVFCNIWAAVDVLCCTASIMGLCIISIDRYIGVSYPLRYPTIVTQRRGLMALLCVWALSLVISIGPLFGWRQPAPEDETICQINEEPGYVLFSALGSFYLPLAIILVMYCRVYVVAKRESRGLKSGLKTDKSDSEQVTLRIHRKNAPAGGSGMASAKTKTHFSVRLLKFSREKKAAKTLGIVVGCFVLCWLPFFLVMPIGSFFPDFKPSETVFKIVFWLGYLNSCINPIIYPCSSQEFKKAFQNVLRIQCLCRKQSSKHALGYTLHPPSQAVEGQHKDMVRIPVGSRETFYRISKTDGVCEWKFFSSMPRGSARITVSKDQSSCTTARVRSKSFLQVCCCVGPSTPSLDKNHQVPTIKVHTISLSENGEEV
Briefly: PDSP Secondary Binding target: ADRA1A - Compounds are tested at 10 uM concentration, plate are incubated at room temperature in the dark for 90 minutes. Reaction are stopped by vacuum filtration onto 0.3% polyethyleneimine soaked filter mats using Filtermate harvester. Scintillation cocktail is then melted onto microwave-dried filters on a hot plate and the radio activity is counted in Microbia counter.

In assay [4] the target is Beta-2 adrenergic receptor (Homo sapiens, UniProt P07550). Briefly: PDSP Secondary Binding target: ADRB2 - Compounds are tested at 10 uM concentration, plate are incubated at room temperature in the dark for 90 minutes. Reaction are stopped by vacuum filtration onto 0.3% polyethyleneimine soaked filter mats using Filtermate harvester. Scintillation cocktail is then melted onto microwave-dried filters on a hot plate and the radio activity is counted in Microbia counter.

The target in assay [5] is 5-hydroxytryptamine receptor 1E (Homo sapiens, UniProt P28566). Briefly: PDSP Secondary Binding target: HTR1E - Compounds are tested at 10 uM concentration, plate are incubated at room temperature in the dark for 90 minutes. Reaction are stopped by vacuum filtration onto 0.3% polyethyleneimine soaked filter mats using Filtermate harvester. Scintillation cocktail is then melted onto microwave-dried filters on a hot plate and the radio activity is counted in Microbia counter.

By Ki is commonly meant the equilibrium dissociation constant of an inhibitor or competing ligand from its target.

Sequence of 5-hydroxytryptamine receptor 1E (P28566 whole entry): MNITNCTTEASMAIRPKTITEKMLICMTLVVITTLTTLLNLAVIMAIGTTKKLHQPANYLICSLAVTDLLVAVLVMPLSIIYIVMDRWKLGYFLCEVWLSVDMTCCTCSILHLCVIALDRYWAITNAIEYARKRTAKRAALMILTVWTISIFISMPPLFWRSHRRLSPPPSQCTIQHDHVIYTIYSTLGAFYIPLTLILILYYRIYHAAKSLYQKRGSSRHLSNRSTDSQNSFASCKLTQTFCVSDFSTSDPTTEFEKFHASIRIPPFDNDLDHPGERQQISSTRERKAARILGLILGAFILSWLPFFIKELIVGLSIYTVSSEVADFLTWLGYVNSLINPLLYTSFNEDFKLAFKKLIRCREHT
Sequence of Histamine H3 receptor (Q9Y5N1 whole entry): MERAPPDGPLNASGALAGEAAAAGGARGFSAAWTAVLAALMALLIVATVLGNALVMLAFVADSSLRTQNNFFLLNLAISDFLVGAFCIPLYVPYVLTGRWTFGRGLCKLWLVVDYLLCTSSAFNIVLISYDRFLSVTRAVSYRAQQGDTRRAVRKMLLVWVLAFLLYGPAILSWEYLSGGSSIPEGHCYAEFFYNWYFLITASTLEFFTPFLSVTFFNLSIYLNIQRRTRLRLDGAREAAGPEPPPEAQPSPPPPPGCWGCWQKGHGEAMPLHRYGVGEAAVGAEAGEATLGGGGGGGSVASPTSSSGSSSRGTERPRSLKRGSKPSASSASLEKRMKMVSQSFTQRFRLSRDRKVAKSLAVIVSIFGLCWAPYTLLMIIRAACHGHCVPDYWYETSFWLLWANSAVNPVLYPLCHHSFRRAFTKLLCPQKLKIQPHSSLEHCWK
Sequence of D(1B) dopamine receptor (P21918 whole entry): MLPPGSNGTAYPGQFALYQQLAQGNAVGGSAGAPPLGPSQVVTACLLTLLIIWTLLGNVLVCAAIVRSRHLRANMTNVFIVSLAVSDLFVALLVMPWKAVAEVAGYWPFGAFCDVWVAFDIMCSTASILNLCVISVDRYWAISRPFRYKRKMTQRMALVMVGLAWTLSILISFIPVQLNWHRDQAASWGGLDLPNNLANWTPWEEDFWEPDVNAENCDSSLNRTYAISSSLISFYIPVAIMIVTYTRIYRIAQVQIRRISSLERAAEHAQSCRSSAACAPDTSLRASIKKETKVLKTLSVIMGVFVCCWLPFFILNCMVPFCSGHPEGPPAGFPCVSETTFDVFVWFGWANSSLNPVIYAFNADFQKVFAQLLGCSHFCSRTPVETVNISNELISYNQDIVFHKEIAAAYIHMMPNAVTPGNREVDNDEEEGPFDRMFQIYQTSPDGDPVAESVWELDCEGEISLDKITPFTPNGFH
Sequence of Sodium-dependent dopamine transporter (Q01959 whole entry): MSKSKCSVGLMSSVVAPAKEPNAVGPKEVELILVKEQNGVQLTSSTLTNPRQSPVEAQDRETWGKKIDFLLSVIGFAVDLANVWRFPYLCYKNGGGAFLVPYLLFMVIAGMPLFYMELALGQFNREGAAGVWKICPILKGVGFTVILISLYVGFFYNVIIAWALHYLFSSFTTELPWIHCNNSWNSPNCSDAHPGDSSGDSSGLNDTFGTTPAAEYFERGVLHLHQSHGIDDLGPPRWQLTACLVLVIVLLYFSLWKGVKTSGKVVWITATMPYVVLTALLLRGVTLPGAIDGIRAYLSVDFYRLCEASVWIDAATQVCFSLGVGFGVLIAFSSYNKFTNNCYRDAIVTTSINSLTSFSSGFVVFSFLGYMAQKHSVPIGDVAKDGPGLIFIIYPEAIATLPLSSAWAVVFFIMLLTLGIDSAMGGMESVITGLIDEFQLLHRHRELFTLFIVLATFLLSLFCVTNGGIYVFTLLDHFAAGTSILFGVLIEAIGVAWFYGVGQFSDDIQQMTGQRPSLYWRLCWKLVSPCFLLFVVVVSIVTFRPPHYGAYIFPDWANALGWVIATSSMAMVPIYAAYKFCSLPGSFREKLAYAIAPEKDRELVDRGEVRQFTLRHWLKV
Sequence of D(1A) dopamine receptor (P21728 whole entry): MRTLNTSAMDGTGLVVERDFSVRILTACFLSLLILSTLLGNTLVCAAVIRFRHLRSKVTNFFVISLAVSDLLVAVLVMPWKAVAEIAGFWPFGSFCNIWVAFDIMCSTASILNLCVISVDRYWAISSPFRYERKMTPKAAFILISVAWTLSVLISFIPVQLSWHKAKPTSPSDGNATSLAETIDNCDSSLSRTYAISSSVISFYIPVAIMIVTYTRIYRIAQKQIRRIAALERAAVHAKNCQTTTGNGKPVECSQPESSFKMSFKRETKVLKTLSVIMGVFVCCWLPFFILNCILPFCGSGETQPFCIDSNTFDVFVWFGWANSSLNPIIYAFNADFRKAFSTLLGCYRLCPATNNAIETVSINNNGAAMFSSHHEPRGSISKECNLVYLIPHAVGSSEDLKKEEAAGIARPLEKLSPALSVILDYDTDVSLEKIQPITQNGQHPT
Sequence of Beta-2 adrenergic receptor (P07550 whole entry): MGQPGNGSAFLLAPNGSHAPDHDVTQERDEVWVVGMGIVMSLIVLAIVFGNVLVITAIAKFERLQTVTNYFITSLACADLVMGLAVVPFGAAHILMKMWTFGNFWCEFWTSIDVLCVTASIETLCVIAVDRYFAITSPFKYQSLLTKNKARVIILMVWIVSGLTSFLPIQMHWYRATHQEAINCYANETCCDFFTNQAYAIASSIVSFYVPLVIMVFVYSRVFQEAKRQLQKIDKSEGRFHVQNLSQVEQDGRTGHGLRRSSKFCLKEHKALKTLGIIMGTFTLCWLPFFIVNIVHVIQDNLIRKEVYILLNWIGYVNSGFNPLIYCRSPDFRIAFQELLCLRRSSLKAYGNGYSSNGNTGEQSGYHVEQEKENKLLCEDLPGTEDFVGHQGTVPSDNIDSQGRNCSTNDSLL

As for `COC(=O)C1=C(C)NC(C)=C(C(=O)OCCCN2CCC(c3ccccc3)(c3ccccc3)CC2)[C@H]1c1cccc([N+](=O)[O-])c1` [NIGULDIPINE], the Ki at D(1B) dopamine receptor came out at 1240 nM; in [1], 591 nM; at D(1A) dopamine receptor it was 370 nM; on Histamine H3 receptor it was 2140 nM.

In the case of `NC[C@@H]1O[C@H](C23CC4CC(CC(C4)C2)C3)Cc2c1ccc(O)c2O`, the inhibitory constant (Ki) was determined as 3.02 nM at D(1B) dopamine receptor, 478 nM in assay [1], 562 nM at D(4) dopamine receptor and 4210 nM in assay [2].

As for `N#Cc1ccc2[nH]cc(CCCCN3CCN(c4ccc5oc(C(N)=O)cc5c4)CC3)c2c1` [VILAZODONE HYDROCHLORIDE], the inhibitory constant (Ki) in [1] was determined as 21.8 nM; on D(4) dopamine receptor it was 824 nM; in assay [2] it was 2900 nM; in assay [3], 278 nM; in assay [4] it was 2490 nM.

As for `O=c1ccc2ccc(OCCCCN3CCN(c4cccc5sccc45)CC3)cc2[nH]1` [BREXPIPRAZOLE], the Ki on D(1B) dopamine receptor amounted to 344 nM; in assay [1], 364 nM; on D(4) dopamine receptor it was 36 nM; in [2] it was 57.9 nM; on D(1A) dopamine receptor, 37.5 nM; on Histamine H3 receptor it was 2610 nM. Moreover, the Ki in assay [3] stood at 29.3 nM; in assay [4], 969 nM; in assay [5] it was 478 nM.

As for `CCCCN1CCC(COC(=O)c2cc(Cl)c(N)c3c2OCCO3)CC1`, the Ki in assay [3] turned out to be 1850 nM.

`CCc1nn(CCCN2CCN(c3cccc(Cl)c3)CC2)c(=O)n1CCOc1ccccc1` [NEFAZODONE HYDROCHLORIDE]: the inhibition constant (Ki) at D(4) dopamine receptor worked out at 326 nM; in assay [2], 572 nM; in assay [3], 137 nM.

Turning to `CN1CCCC(n2nc(Cc3ccc(Cl)cc3)c3ccccc3c2=O)CC1` (stereo unspecified) [AZELASTINE HYDROCHLORIDE], the inhibition constant (Ki) was determined as 3640 nM in assay [2], 577 nM on D(1A) dopamine receptor, 496 nM in assay [3] and 5370 nM in [5].

In assay [5], `Clc1cccc(COc2cncc(N3CCNCC3)n2)c1` came in with a Ki of 1450 nM.

As for `O=S1(=O)c2cccc3cccc(c23)N1CCCN1CCN(c2ccc(F)cc2)CC1` [FANANSERIN], the inhibition constant Ki was 2690 nM in [1], 95.7 nM at D(4) dopamine receptor, 847 nM in assay [2] and 195 nM in [3].

For `CN1CCN(c2ccc(Nc3c4ccccc4nc4ccccc34)cc2)CC1`, the Ki in assay [1] worked out at 451 nM; in assay [2], 2720 nM; on D(1A) dopamine receptor it was 4540 nM; on Histamine H3 receptor, 82.4 nM; in [3] it was 1580 nM; in assay [4] it was 810 nM.

Regarding `Cc1nc(-c2ccc(-c3ccc(C(=O)N4CCc5cc6c(cc54)C4(CCN(C)CC4)CO6)cc3)c(C)c2)no1` [SB-224289], the inhibition constant (Ki) came to 1080 nM at D(1B) dopamine receptor, 1180 nM in [1] and 369 nM on D(1A) dopamine receptor.

On to `CCCCCNC(=N)N/N=C/c1c[nH]c2ccc(OC)cc12` [TEGASEROD MALEATE], for which the inhibition constant Ki on D(1B) dopamine receptor was 4120 nM; at D(4) dopamine receptor, 191 nM; in [2], 2610 nM; in assay [3] it was 1630 nM.

`COc1ccc(NS(=O)(=O)c2sc3ccc(Cl)cc3c2C)cc1N1CCNCC1` yielded an inhibitory constant (Ki) in assay [2] of 2660 nM. This counts as single-digit micromolar.

Regarding `CN1C[C@H](C(=O)N[C@]2(C)O[C@@]3(O)[C@@H]4CCCN4C(=O)[C@H](Cc4ccccc4)N3C2=O)C[C@@H]2c3cccc4[nH]cc(c34)C[C@H]21` [DIHYDROERGOTAMINE MESYLATE], the inhibitory constant (Ki) at D(1B) dopamine receptor is 2950 nM; at D(4) dopamine receptor, 32.8 nM; in [2] it was 119 nM; in [3], 32.9 nM; in [5], 682 nM.

With `CN(C)C(=O)N[C@H]1CC[C@H](CCN2CCN(c3cccc(Cl)c3Cl)CC2)CC1` [CARIPRAZINE HYDROCHLORIDE], the inhibition constant Ki in [2] was found to be 1970 nM. That is a single-digit micromolar value.

For the compound `Cc1nc2sccn2c(=O)c1CCN1CCC(=C(c2ccc(F)cc2)c2ccc(F)cc2)CC1` [RITANSERIN], the Ki on D(1B) dopamine receptor was 493 nM; in assay [1], 318 nM; at D(4) dopamine receptor it was 238 nM; in assay [2], 598 nM; at D(1A) dopamine receptor, 330 nM; in assay [3], 172 nM. In assay [5], this compound came in with a Ki of 556 nM.

Take `CCc1cc2c(cc1CC)CC(NC[C@H](O)c1ccc(O)c3[nH]c(=O)ccc13)C2` [INDACATEROL]: the Ki in assay [1] came to 75 nM; in assay [2] it was 4320 nM; in [3], 356 nM; in assay [4], 106 nM.

For `Cc1cc(C)cc(-c2cnc3cc(Cl)c(-c4cccc(O)c4)cc3c2OCCCN)c1`, the inhibition constant (Ki) on D(1B) dopamine receptor was found to be 993 nM; in assay [5], 5710 nM.

In assay [2], `CCc1ccc(OCc2ccccc2C(=O)Nc2ccc3nc(C)cc(N)c3c2)cc1` registered an inhibitory constant (Ki) of 3540 nM.

Consider `S=C(NCCCc1c[nH]cn1)NCCCN(Cc1ccc(Cl)c(Cl)c1)c1ccc(Br)cn1`, for which the Ki at D(1B) dopamine receptor worked out at 1980 nM; in [1] it was 295 nM; in assay [2], 2030 nM; at D(1A) dopamine receptor it was 1720 nM; on Histamine H3 receptor, 104 nM; in [3] it was 513 nM.

As for `CN1CCC(=C2c3ccccc3CC(=O)c3sccc32)CC1` [KETOTIFEN FUMARATE], the results for the inhibitory constant (Ki) at D(1B) dopamine receptor and on D(1A) dopamine receptor were 2660 nM and 299 nM, respectively.

For the compound `NCCc1cn(S(=O)(=O)c2c(Cl)nc3sccn23)c2ccccc12`, the Ki in assay [1] stood at 1720 nM; in assay [2], 4880 nM; at Histamine H3 receptor, 1980 nM; in [3], 1100 nM.

Regarding `C[C@H](Cc1cc2c(c(C(N)=O)c1)N(CCCO)CC2)NCCOc1ccccc1OCC(F)(F)F` [SILODOSIN], the inhibitory constant (Ki) on D(4) dopamine receptor was 1580 nM; in [2], 196 nM; in [3], 30.3 nM; in [4], 32.8 nM.

On to `COc1ccc(NC(=O)c2ccc(-c3ccc(-c4noc(C)n4)cc3C)cc2)cc1OCCN(C)C`, for which the Ki in [1] amounted to 984 nM; at Histamine H3 receptor it was 709 nM; in [5], 981 nM.

With `OCc1cc(C(O)CNCCCCCCOCCCCc2ccccc2)ccc1O` (stereo unspecified) [SALMETEROL], the Ki in assay [1] was 149 nM; at D(4) dopamine receptor, 1080 nM; in [3] it was 549 nM.
